Common to all, as to experiment: ligand-induced self-cleavage, PAGE, SYBR Gold
Experiment [1] has as its system II-R1-3 (DNA, aptamer) CATGACCACTAGGAGCATCTTTGGCGAGAAGACTCTGGATTCGGGGACCAGTTGCTGCTAGGGGAATAAATCTTTGGGCACCTAGTGGTCATG
The note with it: 100 mM NaCl, 40 mM MgCl2, 1 mM ZnCl2, 50 mM HEPES, pH 7.05; for KD: apparent, half-maximal cleavage, 0.1-100 μM ligand; for ligand-induced cleavage: 30 min.

Experiment [2] deals with II-R1-7 (DNA, aptamer) CATGACCACTAGGAGCATCTTTGGCGATCCTCGTCAGATGGTGAAGCAGACGTTTGGCTAGGGGAATAAATCTTTGGGCACCTAGTGGTCATG
The conditions noted are these: 100 mM NaCl, 40 mM MgCl2, 1 mM ZnCl2; 50 mM HEPES, pH 7.05; apparent, half-maximal cleavage.

In experiment [3] the test system is II-R1-1 (DNA, aptamer) CATGACCACTAGGAGCATCTTTGGCGAGATCGGGAGAATCGGTGGCATTGGTGTCTCCTAGGGGAATAAATCTTTGGGCACCTAGTGGTCATG
The conditions noted are these: 100 mM NaCl, 40 mM MgCl2, 1 mM ZnCl2; 50 mM HEPES, pH 7.05; apparent, half-maximal cleavage.

Turning to `N[C@@H](Cc1ccc(O)cc1)C(=O)O`, the KD in experiment [1] was 6.8 ± 0.7 µM; in experiment [2] it was 118.9 ± 11.7 µM; in experiment [3], 71.6 ± 9.8 µM.

For `N[C@@H](Cc1ccccc1)C(=O)O`, the results for the KD in experiment [1], in experiment [2] and in experiment [3] were 4.8 ± 1.4 µM, 19.3 ± 2.4 µM and 20.3 ± 1.6 µM, respectively.

`NC(Cc1ccc(F)cc1)C(=O)O` (racemic): in experiment [1] (100 μM, fraction cleaved 0.235 (L-Phe 0.325)), the ligand-induced cleavage entry is recorded as “yes”.

In the case of `N[C@H](Cc1ccccc1)C(=O)O`, in experiment [1] (tested at 100 μM, no cleavage induced), the ligand-induced cleavage result is recorded as “no”.

The record behind these values is paper PMC10287898 (2023).
